How the values were obtained:
[1] = molecular target: T1, human ANO1(abc) (Homo sapiens, UniProt Q5XXA6, DEL476-501); test: YFP fluorescence plate reader assay of iodide influx in ANO1 expressing FRT cells; assay type: cell-based; conditions: read-out: IC50 of ANO1 inhibition
T1 construct: expressed in transfected cells
T1 sequence (Q5XXA6 with tags, fused parts or gaps isoform Q5XXA6-5 DEL539-564): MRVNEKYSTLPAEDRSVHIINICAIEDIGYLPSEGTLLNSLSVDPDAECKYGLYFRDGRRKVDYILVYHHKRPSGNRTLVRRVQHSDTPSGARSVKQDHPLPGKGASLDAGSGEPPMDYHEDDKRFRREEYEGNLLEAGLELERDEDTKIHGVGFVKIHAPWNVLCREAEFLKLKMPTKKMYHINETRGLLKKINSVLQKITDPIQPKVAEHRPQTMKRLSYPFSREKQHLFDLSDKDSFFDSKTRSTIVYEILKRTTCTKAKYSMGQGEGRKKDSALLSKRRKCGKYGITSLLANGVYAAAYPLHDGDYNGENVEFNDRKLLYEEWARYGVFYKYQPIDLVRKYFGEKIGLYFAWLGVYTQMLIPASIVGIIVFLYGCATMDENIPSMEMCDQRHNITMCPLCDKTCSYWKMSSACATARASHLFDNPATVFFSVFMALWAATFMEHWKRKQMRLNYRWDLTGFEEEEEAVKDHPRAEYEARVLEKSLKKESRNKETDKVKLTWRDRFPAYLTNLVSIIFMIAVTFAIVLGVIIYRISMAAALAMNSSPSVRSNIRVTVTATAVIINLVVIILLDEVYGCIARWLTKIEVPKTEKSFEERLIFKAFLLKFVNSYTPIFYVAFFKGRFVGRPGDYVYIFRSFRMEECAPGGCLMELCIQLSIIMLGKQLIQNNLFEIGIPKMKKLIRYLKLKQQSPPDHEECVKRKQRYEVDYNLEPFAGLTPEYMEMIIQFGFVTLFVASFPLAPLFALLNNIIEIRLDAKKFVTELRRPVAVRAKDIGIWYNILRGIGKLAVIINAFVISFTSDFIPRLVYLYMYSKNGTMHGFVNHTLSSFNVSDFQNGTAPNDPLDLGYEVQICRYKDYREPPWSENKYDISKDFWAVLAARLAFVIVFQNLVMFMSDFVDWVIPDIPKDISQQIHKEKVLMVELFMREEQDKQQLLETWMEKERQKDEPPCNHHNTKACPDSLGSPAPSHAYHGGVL
Description: Cell based screening was performed as described in previous study. Briefly, ANO1 and YFP expressing FRT cells were plated in 96-well black-walled microplates (Corning Inc., Corning, NY) at a density of 20,000 cells per well, and then cultured for 2 days. Assays were done using FLUOstar Omega microplate reader (BMG Labtech, Ortenberg, Germany) and MARS Data Analysis Software (BMG Labtech). Each well of 96-well plate was washed 3 times in PBS (200 μL/wash), leaving 100 μL PBS. Test compounds (1 μL) were added to each well at 25 μM final concentration. After 10 min, 96-well plates were transferred to a plate reader for fluorescence assay. Each well was assayed individually for TMEM16A-mediated I^- influx by recording fluorescence continuously (400 ms per point) for 1 s (baseline), then 100 μL of 140 mM I^- solution containing 200 μM ATP was added at 1 s and then YFP fluorescence was recorded for 5 s. Initial iodide influx rate was determined from the initial slope of fluorescence decrease, by nonlinear regression, following infusion of iodide with ATP.
ANO1 chloride channel activity was measured using Fischer rat thyroid (FRT) cells stably expressing human ANO1(abc) and the genetically encoded iodide-sensing fluorescent protein, YFP-F46L/H148Q/I152L. This cell model was used because of our prior success in ANO1 chloride channel drug discovery. For the screening to identify ANO1 inhibitors, the FRT cells were pre-incubated with test compounds for 10 minutes prior to addition of an iodide and ATP, an agonist of P2 purinergic receptor which induces an increase in intracellular calcium concentration and activation of ANO1, containing solution.

[2] = molecular target: T2, human wild-type CFTR (Homo sapiens, UniProt P13569); test: Apical membrane current in FRT cells expressing CFTR; assay type: cell-based; conditions: 10 μM, CFTR activated by 20 μM forskolin
T2 construct: expressed in transfected cells; host or cells: Fischer rat thyroid (FRT) cells
T2 sequence (P13569 whole entry): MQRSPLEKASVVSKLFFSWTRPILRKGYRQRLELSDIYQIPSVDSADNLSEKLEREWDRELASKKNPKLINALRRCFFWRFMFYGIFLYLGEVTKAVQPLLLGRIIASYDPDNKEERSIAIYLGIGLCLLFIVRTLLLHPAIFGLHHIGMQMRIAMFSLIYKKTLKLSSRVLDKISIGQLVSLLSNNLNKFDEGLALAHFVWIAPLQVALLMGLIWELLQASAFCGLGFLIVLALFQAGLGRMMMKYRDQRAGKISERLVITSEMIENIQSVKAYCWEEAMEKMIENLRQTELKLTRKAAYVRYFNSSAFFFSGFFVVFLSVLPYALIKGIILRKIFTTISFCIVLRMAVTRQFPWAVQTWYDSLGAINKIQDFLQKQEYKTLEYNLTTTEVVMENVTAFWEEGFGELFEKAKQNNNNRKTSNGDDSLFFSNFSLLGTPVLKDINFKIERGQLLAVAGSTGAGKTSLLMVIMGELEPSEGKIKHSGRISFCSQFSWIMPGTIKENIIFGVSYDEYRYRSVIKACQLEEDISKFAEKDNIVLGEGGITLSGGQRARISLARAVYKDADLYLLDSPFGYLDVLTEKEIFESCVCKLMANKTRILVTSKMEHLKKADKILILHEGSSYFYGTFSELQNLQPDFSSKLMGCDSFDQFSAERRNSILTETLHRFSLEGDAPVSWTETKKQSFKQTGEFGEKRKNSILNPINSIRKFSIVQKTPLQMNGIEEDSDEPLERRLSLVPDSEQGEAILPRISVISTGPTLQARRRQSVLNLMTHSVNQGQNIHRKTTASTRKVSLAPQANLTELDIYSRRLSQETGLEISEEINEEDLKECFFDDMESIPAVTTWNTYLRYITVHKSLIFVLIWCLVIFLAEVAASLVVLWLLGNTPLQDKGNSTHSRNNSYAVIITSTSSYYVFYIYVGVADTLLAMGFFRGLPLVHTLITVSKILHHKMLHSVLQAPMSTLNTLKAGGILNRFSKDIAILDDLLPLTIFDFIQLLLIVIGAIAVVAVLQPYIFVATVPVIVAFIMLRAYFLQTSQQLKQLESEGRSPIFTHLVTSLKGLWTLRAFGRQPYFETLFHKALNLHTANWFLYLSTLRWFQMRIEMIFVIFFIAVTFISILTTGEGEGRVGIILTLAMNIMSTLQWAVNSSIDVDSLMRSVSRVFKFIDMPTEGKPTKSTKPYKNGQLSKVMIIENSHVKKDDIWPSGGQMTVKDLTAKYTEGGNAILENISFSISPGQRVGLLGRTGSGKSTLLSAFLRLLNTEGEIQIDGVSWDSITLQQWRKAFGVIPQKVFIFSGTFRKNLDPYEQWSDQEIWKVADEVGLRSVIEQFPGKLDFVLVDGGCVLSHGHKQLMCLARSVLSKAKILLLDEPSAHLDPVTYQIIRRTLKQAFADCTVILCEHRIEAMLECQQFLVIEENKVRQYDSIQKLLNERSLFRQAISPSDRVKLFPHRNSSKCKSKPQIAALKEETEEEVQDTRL
Description: (§1) Snapwell inserts containing ANO1, ANO2 or CFTR expressing FRT cells, ENaC expressing T-84 cells or the human primary airway epithelial cells were mounted in Ussing chambers (Physiologic Instruments, San Diego, CA). To induce transcriptional ENaC induction, the polarized T84 cells were incubated with 2 mM sodium butyrate for 2 days. To increase the functional expression of ANO1, the human airway epithelial cells were treated with IL-4 (10 ng/mL) for 2 days. For T-84 and the human primary airway epithelial cells, the apical and basolateral bath were filled with HCO3^—buffered solution containing (in mM): 120 NaCl, 5 KCl, 1 MgCl2, 1 CaCl2, 10 D-glucose, 2.5 HEPES, and 25 NaHCO3 (pH 7.4). For FRT cells, the basolateral bath was filled with the HCO3^—buffered solution and the apical bath was filled with a half-Cl^- solution. In the half-Cl^- solution 65 mM NaCl in the HCO3^—buffered solution was replaced by Na-gluconate. […] ATP was applied to the apical bath solution to induce intracellular calcium increase. […] Apical membrane currents were measured with an EVC4000 Multi-Channel V/I Clamp (World Precision Instruments, Sarasota, FL) and PowerLab 4/35 (AD Instruments, Castle Hill, Australia). Data were analyzed using Labchart Pro 7 (AD Instruments). The sampling rate was 4 Hz.
ANO1 was activated by either 10 μM Eact, an ANO1 activator, or 100 μM ATP.

[3] = molecular target: T3, ANO1 (Homo sapiens, UniProt Q5XXA6, DEL476-501); test: Apical membrane current in ANO1 expressing FRT cells; assay type: cell-based; conditions: 100 μM ATP
T3 construct: expressed in transfected cells
T3 sequence (Q5XXA6 with tags, fused parts or gaps isoform Q5XXA6-5 DEL539-564): T1 sequence (Q5XXA6 with tags, fused parts or gaps isoform Q5XXA6-5 DEL539-564)
Description: as §1

[4] = test system: VRAC; test: VRAC activity by YFP quenching in LN215 cells; assay type: cell-based, human; conditions: 10 μM
Description: LN215 cells, a human glioma cell line, were stably transfected with YFP-F46L/H148Q/I152L, a halide sensor YFP. After the cells were incubated on 96well black plates (Corning Inc., Corning, NY) for 48 hours, each well of the 96-well plate was washed 3 times in PBS (200 μL/wash), and the wells were filled with 50 μl/well isotonic solution (in mM): 140 NaCl, 5 KCl, 20 HEPES (310 mOsm/kg; pH 7.4 with NaOH). In each well, VRAC expressed on the cells were stimulated with addition of 50 μl of hypotonic solutions (in mM): 5 KCl, 20 HEPES, 90 mannitol (120 mOsm/kg). Test compounds (1 μL) were added to each well in a dose dependent manner. After 5 min, 96-well plates were transferred to a plate reader for fluorescence assay. Each well was assayed individually for VRAC-mediated I^- influx by recording fluorescence continuously (400 ms per point) for 7.6 s. YFP fluorescence was recorded 0.4 s for baseline, then 100 μL of 140 mM I^- solution was added at 0.4 s to see the change in fluorescence. Initial iodide influx rate was determined from the initial slope of fluorescence decrease, by nonlinear regression, following infusion of iodide.

[5] = molecular target: T4, mouse ANO2 (Mus musculus, UniProt Q8CFW1); test: YFP quenching assay in FRT cells expressing ANO2; assay type: cell-based; conditions: dose dependent, 100 μM ATP
T4 sequence (Q8CFW1 1-1002): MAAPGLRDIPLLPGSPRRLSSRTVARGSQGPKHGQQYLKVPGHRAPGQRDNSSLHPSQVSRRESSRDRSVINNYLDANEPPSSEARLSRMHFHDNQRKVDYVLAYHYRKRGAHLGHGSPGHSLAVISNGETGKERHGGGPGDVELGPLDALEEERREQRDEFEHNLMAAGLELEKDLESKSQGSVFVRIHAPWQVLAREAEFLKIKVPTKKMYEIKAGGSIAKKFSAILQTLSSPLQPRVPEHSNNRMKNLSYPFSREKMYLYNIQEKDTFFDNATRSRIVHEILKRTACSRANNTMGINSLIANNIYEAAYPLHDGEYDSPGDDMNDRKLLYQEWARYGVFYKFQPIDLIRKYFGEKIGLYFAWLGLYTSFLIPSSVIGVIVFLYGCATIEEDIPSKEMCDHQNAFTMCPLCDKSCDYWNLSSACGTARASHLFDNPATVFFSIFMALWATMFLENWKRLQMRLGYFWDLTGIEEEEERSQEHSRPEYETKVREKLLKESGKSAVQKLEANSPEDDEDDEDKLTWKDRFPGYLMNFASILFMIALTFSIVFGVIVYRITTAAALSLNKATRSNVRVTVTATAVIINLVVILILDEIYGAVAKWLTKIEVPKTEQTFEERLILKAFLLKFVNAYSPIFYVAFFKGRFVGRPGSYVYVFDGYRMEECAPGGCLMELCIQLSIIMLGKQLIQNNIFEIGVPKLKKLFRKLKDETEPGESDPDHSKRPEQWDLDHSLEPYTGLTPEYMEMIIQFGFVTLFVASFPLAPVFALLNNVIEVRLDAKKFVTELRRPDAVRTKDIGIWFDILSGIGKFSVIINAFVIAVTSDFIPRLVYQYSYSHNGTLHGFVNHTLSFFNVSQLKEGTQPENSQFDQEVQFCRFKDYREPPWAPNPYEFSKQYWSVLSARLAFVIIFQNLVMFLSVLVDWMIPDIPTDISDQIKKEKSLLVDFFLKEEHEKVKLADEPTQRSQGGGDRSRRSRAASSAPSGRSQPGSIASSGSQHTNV

[6] = molecular target: T5, ANO2 (Mus musculus, UniProt Q8CFW1); test: Apical membrane current in FRT-ANO2 cells; assay type: cell-based; conditions: 10 μM pretreatment
T5 sequence (Q8CFW1 1-1002): T4 sequence (Q8CFW1 1-1002)
Description: as §1
ANO1 belongs to anoctamin gene family which contains ten members presenting eight-pass transmembrane segments with cytosolic N- and C-terminals. ANO2 shares a high level of amino acid homology to ANO1 (~60%) and, ANO1 and ANO2 are confirmed CaCCs. However, the roles of other family members (ANO3-ANO10) remain poorly understood and controversial. […] We investigated the effect of these inhibitors on ANO2-mediated apical membrane current in FRT-ANO2 cells.

[7] = test system: VRAC; design: method as in PMID 24965069, PMID 25163766, PMID 26438191; conditions: ref [26]–[28]; cited from earlier work

COc1ccccc1/C=N/NC(=O)COc1ccc(Br)cc1OC [#4]
IC50 [1]: 438 nM

CCOc1ccc(Br)cc1/C=N/NC(=O)COc1ccc(Cl)cc1Cl [#1]
IC50 [1]: 194 nM

COc1ccc(OC)c(/C=N/NC(=O)COc2ccc(Cl)cc2C)c1 [#2]
IC50 [1]: 262 nM

Cc1cc(Cl)ccc1OCC(=O)N/N=C/c1ccc(O)cc1 [#3]
IC50 [1]: 301 nM

CFTRinh-172
effect on CFTR channel activity [2]: inhibited

CCc1ccc(Br)cc1/C=N/NC(=O)COc1ccc(Br)cc1 [#6]
IC50 [1]: 512 nM

COc1cc(Nc2ccc([N+](=O)[O-])cc2C(=O)O)cc2ccccc12 [MONNA, N-((4-methoxy)-2-naphthyl)-5-nitroanthranilic acid]
inhibition of ATP-induced ANO1 current ([3]; 10 μM pretreatment): almost complete inhibition | IC50 ([3]; apical membrane current, 20 min pretreatment, read-out: IC50 of ATP-induced ANO1 activation): 1950 ± 1160 nM | inhibition of VRAC activity [4]: 87.9 ± 1.7% | effect on ANO2 activity [5]: potently blocked | effect on ATP-induced ANO2 current [6]: strongly blocked

O=C(Nc1cc(C(F)(F)F)cc(C(F)(F)F)c1)Nc1ccc(Br)cc1-c1nnn[nH]1 [NS3728]
block of VRAC activity [7]: potently blocked

COc1ccccc1/C=N/NC(=O)COc1ccc(I)cc1 [#5]
IC50 [1]: 481 nM

CCOc1cc(I)cc(/C=N/NC(=O)COc2cccc(C)c2C)c1O [#8]
IC50 [1]: 894 nM

Cc1cc(Cl)ccc1OCC(=O)N/N=C/c1ccc(O)cc1O [#7]
IC50 [1]: 572 nM

Cc1cc(Cl)ccc1OCC(=O)N/N=C/c1ccccc1O [#9]
IC50 [1]: 1020 nM
